We go through twelve molecules from patent publication US20260258035A1, “FIVE-MEMBERED AND SIX-MEMBERED NITROGEN-CONTAINING COMPOUND, AND INTERMEDIATE, PREPARATION METHOD AND USE THEREOF” (HANGZHOU SYNRX THERAPEUTICS BIOMEDICAL TECHNOLOGY CO., LTD., priority 2022, published 2026).

One test concerns HCC1806. The test can be described thus: Cell viability assay (CellTiter-Glo). The class given is cell-based, Human. The note with it: HCC1806, 7 days, CellTiter-Glo, read-out: IC50 (nM) in cell viability assay.
The target in another test is PARG (Homo sapiens, UniProt Q86W56). The test can be described thus: Biochemical assay (PARG, TFMU-ADPr substrate).
Chain of PARG (Q86W56 whole entry): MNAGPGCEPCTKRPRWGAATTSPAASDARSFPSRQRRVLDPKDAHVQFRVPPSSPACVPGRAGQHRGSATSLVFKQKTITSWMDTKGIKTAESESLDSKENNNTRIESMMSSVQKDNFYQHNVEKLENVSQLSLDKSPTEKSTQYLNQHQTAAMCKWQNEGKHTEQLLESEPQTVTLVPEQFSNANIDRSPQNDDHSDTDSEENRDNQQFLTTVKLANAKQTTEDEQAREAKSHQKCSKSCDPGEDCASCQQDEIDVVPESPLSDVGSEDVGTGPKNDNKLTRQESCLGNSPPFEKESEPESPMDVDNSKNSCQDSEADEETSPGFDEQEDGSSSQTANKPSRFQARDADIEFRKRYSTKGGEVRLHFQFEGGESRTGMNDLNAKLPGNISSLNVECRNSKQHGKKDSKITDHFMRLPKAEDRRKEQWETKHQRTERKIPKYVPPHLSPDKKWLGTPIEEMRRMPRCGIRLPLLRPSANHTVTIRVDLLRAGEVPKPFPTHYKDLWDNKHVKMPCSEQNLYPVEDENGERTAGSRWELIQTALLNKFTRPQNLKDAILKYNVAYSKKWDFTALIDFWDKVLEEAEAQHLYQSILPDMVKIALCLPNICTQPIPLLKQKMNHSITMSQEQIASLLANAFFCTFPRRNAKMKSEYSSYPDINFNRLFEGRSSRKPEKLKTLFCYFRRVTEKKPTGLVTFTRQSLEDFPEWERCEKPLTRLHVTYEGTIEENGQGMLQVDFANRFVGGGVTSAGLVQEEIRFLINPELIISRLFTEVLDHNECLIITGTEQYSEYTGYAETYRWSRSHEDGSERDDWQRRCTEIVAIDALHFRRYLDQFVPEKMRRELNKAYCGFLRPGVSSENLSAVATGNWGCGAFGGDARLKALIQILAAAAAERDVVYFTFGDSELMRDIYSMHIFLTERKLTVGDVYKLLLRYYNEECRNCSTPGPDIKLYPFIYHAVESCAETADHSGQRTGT
Test [1] deals with Human breast squamous carcinoma cells HCC1806. The test can be described thus: Cell function assay (In-Cell Western, PAR/pADPr after MMS). The class given is cell-based. The note with it: read-out: IC50 (nM) in cell function assay. The method in brief:
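HCC1806 cells adhered 24 h at 37 °C, 5% CO2, then were pretreated 1 h with compound (30000 nM down to 1 nM, plus 0 nM) or DMSO. MMS was then added at 0.5 mM final for 1 h before In-Cell Western detection of PAR/pADPr.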

The mark [2] stands for this setting: 4 nM PARG, 66.2 uM TFMU-ADPr, 3 min at room temperature.
The mark [3] stands for this setting: HCC1806, In-Cell Western, MMS treatment.
Setting [4] is: HCC1806, compound 1 h then 0.5 mM MMS 1 h, PAR/pADPr antibody, In-Cell Western.

Where two headings read alike, the source gives them in different places.

For the molecule `O=S(=O)(NC1(CF)CC1)c1cc(N2CCC(CO)CC2)c2nnc(-c3nnc(C(F)F)s3)n2c1` [Example 108, 3-(5-(difluoromethyl)-1,3,4-thiadiazol-2-yl)-N-(1-(fluoromethyl)cyclopropyl)-8-(4-(hydroxymethyl)piperidin-1-yl)-[1,2,4]triazolo[4,3-a]pyridine-6-sulfonamide], the IC50 in the test with HCC1806 is 520 nM; in the test with HCC1806 (Homo sapiens, HCC1806, 168 h), 500 to 5000 nM; against PARG (setting [2]) it was under 100 nM; on PARG (PARG, TFMU-ADPr substrate) it was 1.5 nM; in test [1] (setting [3]) it was 22.6 nM; in test [1] (setting [4]), under 100 nM.
Take `O=S(=O)(NC1(CF)CC1)c1cc(N2CCC3(CCO3)CC2)c2nnc(-c3nnc(C(F)F)s3)n2c1` [Example 110, 3-(5-(difluoromethyl)-1,3,4-thiadiazol-2-yl)-N-(1-(fluoromethyl)cyclopropyl)-8-(1-oxa-7-azaspiro[3.5]nonan-7-yl)-[1,2,4]triazolo[4,3-a]pyridine-6-sulfonamide]: the IC50 was 850 nM with HCC1806; 500 to 5000 nM with HCC1806 (Homo sapiens, HCC1806, 168 h); under 100 nM against PARG (setting [2]); 14 nM against PARG (PARG, TFMU-ADPr substrate); 89.5 nM in test [1] (setting [3]); under 100 nM in test [1] (setting [4]).
As to `COC1(C)CCN(c2cc(S(=O)(=O)NC3(CF)CC3)cn3c(-c4nnc(C(F)F)s4)nnc23)CC1` [Example 111, 3-(5-(difluoromethyl)-1,3,4-thiadiazol-2-yl)-N-(1-(fluoromethyl)cyclopropyl)-8-(4-methoxy-4-methylpiperidin-1-yl)-[1,2,4]triazolo[4,3-a]pyridine-6-sulfonamide], the IC50 was 916 nM in the test on HCC1806; 500 to 5000 nM in the test with HCC1806 (Homo sapiens, HCC1806, 168 h); under 100 nM on PARG (setting [2]); 0.37 nM on PARG (PARG, TFMU-ADPr substrate); 72.9 nM in test [1] (setting [3]); under 100 nM in test [1] (setting [4]).
Turning to `CC1(NS(=O)(=O)c2cc(N3CCC(CO)CC3)c3nnc(-c4nnc(C(F)F)s4)n3c2)CC1` [Example 114, 3-(5-(difluoromethyl)-1,3,4-thiadiazol-2-yl)-8-(4-(hydroxymethyl)piperidin-1-yl)-N-(1-methylcyclopropyl)-[1,2,4]triazolo[4,3-a]pyridine-6-sulfonamide], the IC50 in the test on HCC1806 was 462 nM; with HCC1806 (Homo sapiens, HCC1806, 168 h) it was 500 to 5000 nM; against PARG (setting [2]) it was under 100 nM; against PARG (PARG, TFMU-ADPr substrate), 1.57 nM; in test [1] (setting [3]), 17.5 nM; in test [1] (setting [4]) it was under 100 nM.
Consider `C[C@@H]1CN(c2cc(S(=O)(=O)NC3(C)CC3)cn3c(-c4nnc(C(F)F)s4)nnc23)CCN1C(=O)C1(C)CC1` [Example 117, (R)-3-(5-(difluoromethyl)-1,3,4-thiadiazol-2-yl)-8-(3-methyl-4-(1-methylcyclopropane-1-carbonyl)piperazin-1-yl)-N-(1-methylcyclopropyl)-[1,2,4]triazolo[4,3-a]pyridine-6-sulfonamide], for which the IC50 in the test with HCC1806 was 256 nM; in the test on HCC1806 (Homo sapiens, HCC1806, 168 h), under 500 nM; at PARG (setting [2]) it was under 100 nM; against PARG (PARG, TFMU-ADPr substrate), 8.71 nM; in test [1] (setting [3]) it was 1.49 nM; in test [1] (setting [4]) it was under 100 nM.
As for `C[C@@H]1CN(c2cc(S(=O)(=O)NC3(C#N)CC3)cn3c(-c4nnc(C(F)F)s4)nc(Cl)c23)CCN1C(=O)C1(C)CC1` [Example 123, (R)-1-chloro-N-(1-cyanocyclopropyl)-3-(5-(difluoromethyl)-1,3,4-thiadiazol-2-yl)-8-(3-methyl-4-(1-methylcyclopropane-1-carbonyl)piperazin-1-yl)imidazo[1,5-a]pyridine-6-sulfonamide], the concentration for half-maximal inhibition (IC50) with HCC1806 is 584 nM; in the test with HCC1806 (Homo sapiens, HCC1806, 168 h), 500 to 5000 nM; at PARG (setting [2]) it was under 100 nM; at PARG (PARG, TFMU-ADPr substrate) it was 9.12 nM; in test [1] (setting [3]), 7.13 nM; in test [1] (setting [4]) it was under 100 nM.
Consider `N#CC1(NS(=O)(=O)c2cc(N3CCN(C(=O)C4CC(F)(F)C4)CC3)c3cnc(-c4nnc(C(F)F)s4)n3c2)CC1` [Example 146, N-(1-cyanocyclopropyl)-8-(4-(3,3-difluorocyclobutane-1-carbonyl)piperazin-1-yl)-3-(5-(difluoromethyl)-1,3,4-thiadiazol-2-yl)imidazo[1,5-a]pyridine-6-sulfonamide], for which the IC50 in the test with HCC1806 is 692 nM; in the test with HCC1806 (Homo sapiens, HCC1806, 168 h), 500 to 5000 nM; on PARG (setting [2]), under 100 nM; against PARG (PARG, TFMU-ADPr substrate) it was 11.5 nM; in test [1] (setting [3]), 28.9 nM; in test [1] (setting [4]) it was under 100 nM.
Turning to `CC(C)C(=O)N1CCN(c2cc(S(=O)(=O)NC3(C#N)COC3)cn3c(-c4nnc(C(F)F)s4)ncc23)CC1` [Example 148, N-(3-cyanooxetan-3-yl)-3-(5-(difluoromethyl)-1,3,4-thiadiazol-2-yl)-8-(4-isobutyrylpiperazin-1-yl)imidazo[1,5-a]pyridine-6-sulfonamide], the half-inhibitory concentration (IC50) in the test with HCC1806 is 8810 nM; in the test on HCC1806 (Homo sapiens, HCC1806, 168 h), 5000 to 30000 nM; at PARG (setting [2]) it was under 100 nM; on PARG (PARG, TFMU-ADPr substrate), 2.04 nM; in test [1] (setting [3]), 8510 nM; in test [1] (setting [4]), over 1000 nM.
Turning to `[2H]c1nc(-c2nnc(C(F)F)s2)n2cc(S(=O)(=O)NC3(CF)COC3)cc(N3CCN(C(=O)C(C)C)CC3)c12` [Example 153, 3-(5-(difluoromethyl)-1,3,4-thiadiazol-2-yl)-N-(3-(fluoromethyl)oxetan-3-yl)-8-(4-isobutyrylpiperazin-1-yl)imidazo[1,5-a]pyridine-6-sulfonamide-1-d], the concentration for half-maximal inhibition (IC50) in the test on HCC1806 was 352 nM; with HCC1806 (Homo sapiens, HCC1806, 168 h), 500 to 5000 nM; on PARG (setting [2]), under 100 nM; against PARG (PARG, TFMU-ADPr substrate), 5.34 nM; in test [1] (setting [3]), 2.99 nM; in test [1] (setting [4]) it was under 100 nM.
Take `[2H]c1nc(-c2nnc(C(F)F)s2)n2cc(S(=O)(=O)NC3(C)COC3)c(F)c(N3CCN(C(=O)C(C)C)CC3)c12` [Example 155, 3-(5-(difluoromethyl)-1,3,4-thiadiazol-2-yl)-7-fluoro-8-(4-isobutyrylpiperazin-1-yl)-N-(3-methyloxetan-3-yl)imidazo[1,5-a]pyridine-6-sulfonamide-1-d]: the IC50 in the test with HCC1806 was 727 nM; in the test with HCC1806 (Homo sapiens, HCC1806, 168 h) it was 500 to 5000 nM; against PARG (setting [2]) it was under 100 nM; against PARG (PARG, TFMU-ADPr substrate), 1.68 nM; in test [1] (setting [3]), 39.1 nM; in test [1] (setting [4]) it was 100 to 500 nM.
On to `[2H]c1nc(-c2nnc(C(F)F)s2)n2cc(S(=O)(=O)NC3(C#N)CC3)cc(N3CCN(C(=O)C4(C)CC4)[C@H](C)C3)c12` [Example 156, (R)—N-(1-cyanocyclopropyl)-3-(5-(difluoromethyl)-1,3,4-thiadiazol-2-yl)-8-(3-methyl-4-(1-methylcyclopropane-1-carbonyl)piperazin-1-yl)imidazo[1,5-a]pyridine-6-sulfonamide-1-d], for which the IC50 in the test with HCC1806 is 280 nM; in the test on HCC1806 (Homo sapiens, HCC1806, 168 h), under 500 nM; at PARG (setting [2]), under 100 nM; against PARG (PARG, TFMU-ADPr substrate), 6.92 nM; in test [1] (setting [3]) it was 12 nM; in test [1] (setting [4]), under 100 nM.
`CC(C)C(=O)N1CCN(c2cc(S(=O)(=O)NC3(C#N)CC3)cn3c(-c4nnc(CO)s4)ncc23)CC1` [Example 366, N-(1-cyanocyclopropyl)-3-(5-(hydroxymethyl)-1,3,4-thiadiazol-2-yl)-8-(4-isobutyrylpiperazin-1-yl)imidazo[1,5-a]pyridine-6-sulfonamide]: the IC50 is 7730 nM in the test with HCC1806; 5000 to 30000 nM in the test with HCC1806 (Homo sapiens, HCC1806, 168 h); under 100 nM at PARG (setting [2]); 7.94 nM against PARG (PARG, TFMU-ADPr substrate); 70.4 nM in test [1] (setting [3]); under 100 nM in test [1] (setting [4]).
